# How the values were obtained:
# [1] = Adsorption/precipitation of SA or AEA in 10 wt % aqueous fly ash or cement slurries at pH 12.5; type: physicochemical; conditions: initial SA 3 mM
# Procedure: Adsorption/Precipitation of Sacrificial Agents (SA) or Air Entrainment Agents (AEA) in 10 wt % Aqueous Fly Ash Slurries at pH 12.5:
# (§1) The pH of the solutions were adjusted to 12.5 with NaOH.
# Adsorption/Precipitation in FA or Cement Slurries: In this protocol, aqueous slurries containing 10 wt % FA or cement were prepared as described above, except that in this case, the cement was added directly into a solution of the SA or AEA in the following proportions: 3.0 g cement or FA, and 27 g of 3 mM sacrificial agent, or 27 g of 1050 mg/l AEA; the latter were prepared in the same way as in the precipitation test above. The residual (soluble) SA or AEA content in the solution was also determined by UV or COD.
# [2] = Paste air entrainment, Minimum air protocol
# Procedure: (§2) Preparation of pastes: Pastes were prepared by pouring 400 g of cementitious powder in the 350-400 g of solution (water and additives) in a vessel (8.4 cm dia,×14.5 cm height) while gently stirring with a spatula; the exact quantity of water depends on the selected W/B ratio (see below); rapid hand mixing was continued for 1 minute, followed by intense stirring at 25° C. during 2 min using a hand-held mixer (BRAUN model MR400). The level of air entrained is dependent on the mode of utilisation of the mixer, namely the height of the mixer from the bottom of the vessel and the length of the mixing stroke; the following protocols were adopted.
# Minimum air protocol: The BRAUN mixer is positioned at 1.0 inch from the bottom of the mixing vessel and the up-down motion of the mixer is limited to a 1.0 inch displacement; this provided ‘minimum air’ entrained air levels and is later referred to as ‘Minimum air protocol’ (Results reported in Table 6, col. 1 and Table 7).
# (§3) Fluidity measurements: For all air entrainment measurements, the initial fluidity of the paste (without additives) was controlled using the ‘mini-slump’ procedure widely used for paste and grouts. In this protocol, a portion of the paste was transferred into the min-slump cone (a 2¼″ high, 1½″ bottom diameter, ¾″ top diameter cone); excess paste was skimmed-off with a straight; the cone was then raised and the spread diameter of the paste was recorded (average of two measurements). The fluidity is measured at 10 minutes after mixing. The paste is returned to the batch and reserved for subsequent AE measurements. The fluidity of the paste (without SA and AEA) is adjusted by changing the amount of water (water/cementitious ratio) which yields a spread diameter of 115±5 mm. The latter is monitored regularly.
# (§4) Air entrainment measurements: For air entrainment measurements, a portion of the paste was transferred to overfill a Plexiglas cylinder (3¾ inches height, 2 inches interior diameter), which was then levelled flush to the top of the cylinder with a straight edge. The mass of the filled cylinder, minus the weight of the empty cylinder, is then recorded and used to calculate the amount of air according to the following formula: […]
# (§5) This procedure was carried out at three times at 30 min. intervals (6, 36 and 66 min); the paste was let to stand at rest between measurements, and was stirred gently by hand for one minute prior to the subsequent air entrainment measurements.
# Typical mixture compositions for air entrainment measurements in pastes containing a single additive using ‘Minimum air protocol’ (results shown in Table 6, col. 1): […]
# [3] = Precipitation in slurry extract or leachate; type: physicochemical; conditions: pH 12.5, entries in parentheses
# Procedure: as §1
# Precipitation in slurry extract or leachate: To perform this test, FA or cement leachate were prepared in advance, by filtering two liters of a 10 wt % FA, or cement, slurry in 0.03N NaOH which had been left to stand under slow agitation for 30 min; 2.5 g of the filtrate solution was mixed with 22.5 g of the SA or AEA solution in a 50 ml polypropylene centrifuge tube; the latter was shaken vigorously in an orbital shaker (Eberbach Corporation) for 30 min at room temperature, centrifuged for 5 min and then the supernatant solution was filtered (0.45 μm). The SA or AEA content of the solution was determined using an Ultraviolet-Visible (UV) spectrometer or by COD (Chemical Oxygen Demand) measurement.
# Entries in parentheses: % precipitation when reacted with solutions extracted from the fly ash slurries (Results in Table 5).
# [4] = Paste air entrainment, Maximum air protocol; conditions: for Air entrained at 66 min: Air 30 (0.0125 wt %)/X/ButOH=1/4/4, X = the labelled sulfonated SA
# Procedure: as §2, §3, §4, §5
# Other combinations of air entrainment agents and sacrificial agents were prepared as stock solutions following the procedure outlined above, adjusting the weights of the various components to achieve the desired component ratios.
smiles,measurement,setting,value
"O=S(=O)([O-])c1ccc2ccccc2c1.[Na+] [NS, Sodium 2-Naphthalene sulfonate]",Adsorption (wt % Adsorbed),"[1]; 10 wt % PCA cement slurry, Air 30/Air 40 0.105 wt %",3 wt %
same,Adsorption (wt % Adsorbed),"[1]; 10 wt % fly ash B1 (LOI 4.36%) slurry, Air 30/Air 40 0.105 wt %",8 wt %
same,Adsorption (wt % Adsorbed),"[1]; 10 wt % fly ash C1, class C (LOI 1.62%) slurry, Air 30/Air 40 0.105 wt %",70 wt %
same,Adsorption (wt % Adsorbed),[1]; 10 wt % fly ash C2 (LOI 3.32%) slurry,5 wt %
same,Adsorption (wt % Adsorbed),"[1]; 10 wt % fly ash D, class C (LOI […]) slurry, Air 30/Air 40 0.105 wt %",59 wt %
same,Adsorption (wt % Adsorbed),"[1]; 10 wt % fly ash M1 (LOI […]) slurry, Air 30/Air 40 0.105 wt %",11 wt %
same,Adsorption (wt % Adsorbed),"[1]; 10 wt % fly ash M2 (LOI 5.34%) slurry, Air 30/Air 40 0.105 wt %",8 wt %
same,Adsorption (wt % Adsorbed),"[1]; 10 wt % fly ash M3 (LOI 11.33%) slurry, Air 30/Air 40 0.105 wt %",10 wt %
same,Adsorption (wt % Adsorbed),[1]; 10 wt % fly ash N (LOI 0.30%) slurry,5 wt %
same,Adsorption (wt % Adsorbed),"[1]; 10 wt % fly ash R (LOI […]) slurry, Air 30/Air 40 0.105 wt %",24 wt %
same,Air entrained,"[2]; 50:50 fly ash B1 (LOI 4.36%):PCA paste, 0.1 wt % Air 30 alone or with 0.05 wt % of the SA",4 vol %
same,Air entrained,"[2]; 50:50 fly ash C1 (LOI 1.62%):PCA paste, 0.1 wt % Air 30 alone or with 0.05 wt % of the SA",12 vol %
same,Air entrained,"[2]; 50:50 fly ash D (LOI […]):PCA paste, 0.1 wt % Air 30 alone or with 0.05 wt % of the SA",6 vol %
same,Air entrained,"[2]; 50:50 fly ash M1 (LOI […]):PCA paste, 0.1 wt % Air 30 alone or with 0.05 wt % of the SA",4 vol %
same,Air entrained,"[2]; 50:50 fly ash M2 (LOI 5.34%):PCA paste, 0.1 wt % Air 30 alone or with 0.05 wt % of the SA",3 vol %
same,Air entrained,"[2]; 50:50 fly ash M3 (LOI 11.33%):PCA paste, 0.1 wt % Air 30 alone or with 0.05 wt % of the SA",4 vol %
same,Air entrained,"[2]; 50:50 fly ash R (LOI […]):PCA paste, 0.1 wt % Air 30 alone or with 0.05 wt % of the SA",6 vol %
same,Air entrained,"[2]; PCA cement paste, 0.1% SA or AEA alone, Minimum air protocol",0 vol %
same,Average of air entrained,"[2]; over the fly ash:PCA pastes of Table 7, 0.1 wt % Air 30 alone or with 0.05 wt % of the SA",5%
same,Precipitation (wt % precipitated),[3]; solution extracted from 10 wt % PCA cement slurry,1 wt %
same,Precipitation (wt % precipitated),[3]; solution extracted from 10 wt % fly ash B1 (LOI 4.36%) slurry,0 wt %
same,Precipitation (wt % precipitated),"[3]; solution extracted from 10 wt % fly ash C1, class C (LOI 1.62%) slurry",10 wt %
same,Precipitation (wt % precipitated),[3]; solution extracted from 10 wt % fly ash C2 (LOI 3.32%) slurry,0 wt %
same,Precipitation (wt % precipitated),"[3]; solution extracted from 10 wt % fly ash D, class C (LOI […]) slurry",1 wt %
same,Precipitation (wt % precipitated),[3]; solution extracted from 10 wt % fly ash M1 (LOI […]) slurry,0 wt %
same,Precipitation (wt % precipitated),[3]; solution extracted from 10 wt % fly ash M2 (LOI 5.34%) slurry,0 wt %
same,Precipitation (wt % precipitated),[3]; solution extracted from 10 wt % fly ash M3 (LOI 11.33%) slurry,0 wt %
same,Precipitation (wt % precipitated),[3]; solution extracted from 10 wt % fly ash N (LOI 0.30%) slurry,0 wt %
same,Precipitation (wt % precipitated),[3]; solution extracted from 10 wt % fly ash R (LOI […]) slurry,0 wt %
same,Air entrained at 66 min,[4]; 50:50 fly ash B1 (LOI 4.36%):PCA paste,7 vol %
same,Air entrained at 66 min,[4]; 50:50 fly ash D (LOI […]):PCA paste,18 vol %
same,Air entrained at 66 min,[4]; 50:50 fly ash M2 (LOI 5.34%):PCA paste,5 vol %
same,Air entrained,"[4]; PCA cement paste, 0.0125% SA or AEA alone, Maximum air protocol",2 vol %
same,Air entrained at 66 min,"[4]; PCA paste, no fly ash",13 vol %

# Reference: US7892350B2, “Sacrificial agents for fly ash concrete” (Boral Material Technologies Inc., priority 2003, dated 2011)
